The values below come from PubChem BioAssay (NCI).

SMILES strings stand for the structures.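 Step 1: Grow cells in 96-well plates. Step 2: Expose to compound for 48 hours at 5 concentrations. Step 3: Interpolate endpoints linearly; if unreached, use highest concentration. At the GI50, growth is halved. At the TGI there is no net growth.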

Among the test systems are HOP-62 NSCLC; LOX IMVI melanoma; OVCAR-5 ovarian; NCI/ADR-RES ovarian; SK-MEL-2 melanoma; SF-268 CNS; SK-OV-3 ovarian; A549 NSCLC; SR leukemia; MCF7 breast.
Common to all, as to experiment: NCI tumour cell line growth inhibition, 48 h

As for `COc1cc(O)c(C(=O)/C=C/c2ccccc2)c(OC)c1`, the TGI is 38.5 µM in the assay on HOP-62 NSCLC; 6.36 µM with LOX IMVI melanoma; more than 100 µM with OVCAR-5 ovarian; 14.4 µM in the assay on NCI/ADR-RES ovarian; 21.1 µM in the assay with SK-MEL-2 melanoma; 20.8 µM in the assay with SF-268 CNS. Besides, the TGI in the assay on SK-OV-3 ovarian was 25.6 µM; in the assay with A549 NSCLC, 30 µM; with SR leukemia, 6.05 µM; in the assay on MCF7 breast it was 24.2 µM.
With `COc1cc(C(=O)O)c([N+](=O)[O-])c(OC)c1OC`, the TGI with HOP-62 NSCLC, in the assay on LOX IMVI melanoma, with OVCAR-5 ovarian, with NCI/ADR-RES ovarian, in the assay with SK-MEL-2 melanoma and with SF-268 CNS was more than 100 µM each time. In addition, the TGI in the assay with SK-OV-3 ovarian, in the assay on A549 NSCLC, with SR leukemia and in the assay with MCF7 breast was more than 100 µM throughout.
With `COC(=O)[C@]12CC[C@@H](C)[C@H](C)[C@@H]1C1=CC[C@@H]3[C@@]4(C)CC(=O)[C@H](O)[C@@]5(C)COC(=C45)C[C@@]3(C)[C@]1(C)CC2`, the GI50 in the assay on HOP-62 NSCLC is 16.9 µM; with LOX IMVI melanoma, 17 µM; in the assay with OVCAR-5 ovarian, 18.4 µM; with NCI/ADR-RES ovarian, 18.4 µM; with SK-MEL-2 melanoma, 18.9 µM; in the assay on SF-268 CNS, 19.2 µM. The GI50 in the assay on SK-OV-3 ovarian is 18.2 µM; with A549 NSCLC, 23.9 µM; in the assay on SR leukemia, 20.4 µM; in the assay with MCF7 breast, 16.9 µM. The TGI stood at 31.1 µM in the assay with HOP-62 NSCLC; 31.1 µM in the assay on LOX IMVI melanoma; 37.7 µM with OVCAR-5 ovarian; 37.6 µM with NCI/ADR-RES ovarian; 37.2 µM in the assay on SK-MEL-2 melanoma; 37.8 µM with SF-268 CNS. Also, the TGI in the assay with SK-OV-3 ovarian was determined as 32.8 µM; in the assay on A549 NSCLC it was 41.5 µM; in the assay on SR leukemia, 45.2 µM; in the assay on MCF7 breast, 35.6 µM.
In the case of `Nc1ccn(C=C=CCO)c(=O)n1`, the GI50 in the assay on HOP-62 NSCLC, in the assay on LOX IMVI melanoma, with OVCAR-5 ovarian, with NCI/ADR-RES ovarian, with SK-MEL-2 melanoma and in the assay on SF-268 CNS was more than 1000 µM each time. For the same molecule, the GI50 in the assay on SK-OV-3 ovarian, with A549 NSCLC and in the assay with MCF7 breast was more than 1000 µM throughout. Besides, the TGI in the assay on HOP-62 NSCLC, in the assay on LOX IMVI melanoma, in the assay with OVCAR-5 ovarian, with NCI/ADR-RES ovarian, with SK-MEL-2 melanoma and in the assay with SF-268 CNS was more than 1000 µM each time. Besides, the TGI with SK-OV-3 ovarian, in the assay on A549 NSCLC, with SR leukemia and in the assay on MCF7 breast was more than 1000 µM throughout.
As for `O=C(c1cccs1)c1c(C(F)(F)F)n([O-])c2ccc(C(F)(F)F)cc2[n+]1=O`, the GI50 was 0.298 µM in the assay with HOP-62 NSCLC; 0.0571 µM in the assay on LOX IMVI melanoma; 0.205 µM in the assay with OVCAR-5 ovarian; 0.219 µM in the assay with NCI/ADR-RES ovarian; 0.785 µM with SK-MEL-2 melanoma; 0.182 µM in the assay on SF-268 CNS. Besides, the GI50 was 1.24 µM in the assay on SK-OV-3 ovarian, 0.134 µM with A549 NSCLC, 0.301 µM in the assay with SR leukemia and 0.294 µM in the assay on MCF7 breast. For the same molecule, the TGI with HOP-62 NSCLC is 0.767 µM; with LOX IMVI melanoma, 0.127 µM; in the assay on OVCAR-5 ovarian, 0.494 µM; in the assay with NCI/ADR-RES ovarian, 0.573 µM; in the assay on SK-MEL-2 melanoma it was 1.85 µM; with SF-268 CNS it was 0.355 µM. In addition, the TGI in the assay with SK-OV-3 ovarian was 2.56 µM; with A549 NSCLC it was 0.31 µM; in the assay with SR leukemia it was 1.28 µM; in the assay on MCF7 breast, 0.787 µM.
For the molecule `Cn1cc(-c2ccc(=O)n(Cc3cccc(-c4ncc(OCCN5CCOCC5)cn4)c3)n2)cn1`, the GI50 in the assay on HOP-62 NSCLC was more than 62.7 µM; in the assay on LOX IMVI melanoma, more than 100 µM; in the assay on OVCAR-5 ovarian, more than 100 µM; in the assay with NCI/ADR-RES ovarian, 37.5 µM; in the assay with SK-MEL-2 melanoma it was more than 88.3 µM; in the assay on SF-268 CNS it was more than 100 µM. For the same molecule, the GI50 with SK-OV-3 ovarian is more than 100 µM; in the assay on A549 NSCLC, 71.7 µM; in the assay with SR leukemia it was 76.4 µM; with MCF7 breast, 39.5 µM. Further, the TGI with HOP-62 NSCLC, with LOX IMVI melanoma, with OVCAR-5 ovarian, with NCI/ADR-RES ovarian, in the assay on SK-MEL-2 melanoma and in the assay with SF-268 CNS was more than 100 µM in each case. The TGI in the assay on SK-OV-3 ovarian, in the assay with A549 NSCLC, in the assay with SR leukemia and in the assay with MCF7 breast was more than 100 µM throughout.
In the case of `CCCCCCCCCCCCCCCCCCNC(=O)[C@H]1CSC(c2ccc(OC)c(F)c2)N1` (stereo partly drawn), the GI50 in the assay with HOP-62 NSCLC is 2.16 µM; in the assay on LOX IMVI melanoma it was 2.68 µM; with OVCAR-5 ovarian, 3.55 µM; in the assay on NCI/ADR-RES ovarian, 2.52 µM; in the assay with SK-MEL-2 melanoma, 2.27 µM; in the assay with SF-268 CNS, 1.73 µM. Also, the GI50 in the assay on SK-OV-3 ovarian is more than 42 µM; in the assay on A549 NSCLC, 9.87 µM; with SR leukemia it was 0.641 µM; with MCF7 breast it was 0.386 µM. Further, the TGI in the assay on HOP-62 NSCLC is 5.12 µM; in the assay on LOX IMVI melanoma, 15.8 µM; in the assay with OVCAR-5 ovarian it was more than 33.4 µM; in the assay on NCI/ADR-RES ovarian it was 6.22 µM; in the assay with SK-MEL-2 melanoma, 5.48 µM; in the assay with SF-268 CNS it was 4.14 µM. Further, the TGI in the assay on SK-OV-3 ovarian is more than 58 µM; with A549 NSCLC, 38.1 µM; in the assay with SR leukemia it was 2.88 µM; with MCF7 breast, 1.4 µM.
With `COc1ccccc1C(=O)/C=C/c1cc2cccc(OC)c2[nH]c1=O`, the GI50 in the assay with HOP-62 NSCLC is 0.0668 µM; with LOX IMVI melanoma it was 0.0262 µM; in the assay on OVCAR-5 ovarian, 0.321 µM; with NCI/ADR-RES ovarian, 0.0194 µM; with SK-MEL-2 melanoma, 0.656 µM; in the assay with SF-268 CNS it was 0.0935 µM. For the same molecule, the GI50 with SK-OV-3 ovarian was 0.554 µM; in the assay on A549 NSCLC, 0.069 µM; with MCF7 breast it was 0.0358 µM. Moreover, the TGI was 4.9 µM in the assay on HOP-62 NSCLC; 0.724 µM in the assay with LOX IMVI melanoma; 2.89 µM in the assay with OVCAR-5 ovarian; 13.6 µM with NCI/ADR-RES ovarian; 4.7 µM with SK-MEL-2 melanoma; 2.06 µM with SF-268 CNS. In addition, the TGI in the assay with SK-OV-3 ovarian was 14.9 µM; in the assay with A549 NSCLC, 12.6 µM; in the assay with SR leukemia it was more than 51.3 µM; with MCF7 breast it was 4.12 µM.
`O=C1c2ccccc2-c2c1c1ccccc1c(=O)n2CCO`: the TGI with HOP-62 NSCLC is 32.5 µM; in the assay with LOX IMVI melanoma it was more than 100 µM; with OVCAR-5 ovarian, more than 100 µM; with NCI/ADR-RES ovarian, more than 100 µM; in the assay on SK-MEL-2 melanoma, 87.2 µM; in the assay with SF-268 CNS it was more than 100 µM. Also, the TGI in the assay on SK-OV-3 ovarian is more than 100 µM; in the assay on A549 NSCLC, more than 100 µM; in the assay on SR leukemia it was 22.5 µM; in the assay on MCF7 breast, more than 100 µM.
